Data set [1] has as its system Staphylococcus aureus. Briefly: Antibacterial activity against methicillin resistant Staphylococcus aureus ATCC33591 assessed as inhibition of bacterial growth incubated for 24 hrs by broth microdilution method. It counts as functional.
Data set [2] relates to Staphylococcus aureus. Briefly: Drug resistance, ratio of MIC for methicillin-resistant Staphylococcus aureus ATCC33591 after 16 passages to MIC for methicillin-resistant Staphylococcus aureus ATCC33591 after initial exposure. It counts as functional.
In data set [3] the test system is Staphylococcus aureus. Briefly: Bactericidal activity against methicillin resistant Staphylococcus aureus ATCC33591 assessed as inhibition of bacterial growth incubated for 24 hrs by resazurin dye based analysis. It counts as functional. (Alamar Blue is a resazurin reagent that responds to reducing activity.)
In data set [4] the test system is Staphylococcus aureus. Briefly: Drug resistance, ratio of MIC for methicillin-resistant Staphylococcus aureus ATCC33591 after 19 passages to MIC for methicillin-resistant Staphylococcus aureus ATCC33591 after initial exposure. The class given is functional.
Data set [5] relates to Staphylococcus aureus. Briefly: Bactericidal activity against Staphylococcus aureus ATCC25923 assessed as inhibition of bacterial growth incubated for 24 hrs by resazurin dye based analysis. It counts as functional.
Data set [6] relates to Staphylococcus aureus. Briefly: Antibacterial activity against Staphylococcus aureus ATCC25923 assessed as inhibition of bacterial growth incubated for 24 hrs by broth microdilution method. It counts as functional.
Data set [7] has as its system Staphylococcus aureus. Briefly: Antibacterial activity against methicillin resistant Staphylococcus aureus ATCC33591 infected in mouse model of abdominal infection assessed as reduction in mean bacterial load in blood at 5 mg/kg, ip treated for 24 hrs starting from 2 hrs post infection relative to control. It counts as functional. Further details: scale not given: the % may be the effect or the level left.

For data set [8], the system named is Staphylococcus aureus. Briefly: Antibacterial activity against methicillin resistant Staphylococcus aureus ATCC33591 assessed as post antibiotic effect at 8 ug/ml measured after 2 hrs. The class given is functional. Particulars: dose 8 µg/ml.
Data set [9] relates to Staphylococcus aureus. Briefly: Antibacterial activity against methicillin resistant Staphylococcus aureus ATCC33591 infected in mouse model of abdominal infection assessed as reduction in mean bacterial load in blood at 10 mg/kg, ip treated for 24 hrs starting from 2 hrs post infection relative to control. The class given is functional. Also on record: scale not given: the % may be the effect or the level left.

For data set [10], the system named is Staphylococcus aureus. Briefly: Antibacterial activity against methicillin resistant Staphylococcus aureus ATCC33591 assessed as eradication of viable bacteria at >=4 times MIC measured within 24 hrs by time kill assay relative to control. It counts as functional.
In data set [11] the test system is Staphylococcus aureus. Briefly: Antibacterial activity against methicillin resistant Staphylococcus aureus ATCC33591 assessed as post antibiotic effect at 16 ug/ml measured after 2 hrs. Particulars: dose 16 µg/ml. It counts as functional.
Data set [12] concerns Staphylococcus aureus. Briefly: Antibacterial activity against methicillin resistant Staphylococcus aureus ATCC33591 assessed as eradication of viable bacteria at >8 times MIC measured after 24 hrs by time kill assay. It counts as functional, organism-based.
A short description of data set [13]: Cytotoxicity against human L02 cells assessed as cell viability at 32 to 64 ug/ml measured after 24 hrs by MTT assay. It counts as toxicity, cell-based. The note with it: at 32 to 64 µg/mL, dose 32-64 µg/ml, read-out: Activity. On the technique in general: Tetrazolium assays rely on reduction of a dye to a coloured formazan, in cell work by metabolically active cells.

The test system of a further data set is Escherichia coli. Briefly: Antibacterial activity against Escherichia coli ATCC25922 assessed as inhibition of bacterial growth incubated for 24 hrs by broth microdilution method. It counts as functional. In general terms: In broth dilution the organism is exposed to a series of concentrations in liquid medium.
Another data set has as its system Enterococcus faecium. Briefly: Antibacterial activity against vancomycin-resistant Enterococcus faecium ATCC 700221 assessed as inhibition of bacterial growth incubated for 24 hrs by broth microdilution method. The class given is functional.
Data set [14] relates to Staphylococcus aureus. Briefly: Drug resistance, ratio of MIC for methicillin-resistant Staphylococcus aureus ATCC33591 after 18 passages to MIC for methicillin-resistant Staphylococcus aureus ATCC33591 after initial exposure. The class given is functional.
Data set [15] is described as follows: Cytotoxicity against human HepG2 cells assessed as cell viability at 32 to 64 ug/ml measured after 24 hrs by MTT assay. The class given is toxicity, cell-based. The note with it: at 32 to 64 µg/mL, dose 32-64 µg/ml, read-out: Activity.
In data set [16] the test system is Staphylococcus aureus. Briefly: Antibacterial activity against methicillin resistant Staphylococcus aureus ATCC33591 assessed as inhibition of bacterial growth at 1 times MIC incubated for 24 hrs by time kill assay. It counts as functional, organism-based.
The subject of a further data set is Ralstonia solanacearum. Briefly: Antibacterial activity against Ralstonia solanacearum assessed as inhibition of bacterial growth incubated for 24 hrs by broth microdilution method. It counts as functional.
Data set [17] can be described thus: (§1) Antibacterial activity against Pseudomonas syringae pv. actinidiae assessed as inhibition of bacterial growth incubated for 24 hrs by broth microdilution method. The class given is functional.
The subject of data set [18] is Staphylococcus aureus. Briefly: Antibacterial activity against methicillin resistant Staphylococcus aureus ATCC33591 assessed as reduction in viable bacterial count at 2 times MIC measured within 24 hrs by time kill assay relative to control. The class given is functional.
In data set [19] the test system is Staphylococcus aureus. Briefly: Ratio of MBC to MIC for Staphylococcus aureus ATCC25923. It counts as functional.
For data set [20], the system named is Staphylococcus aureus. Briefly: Antibacterial activity against methicillin resistant Staphylococcus aureus ATCC33591 assessed as post antibiotic effect at 1 ug/ml measured after 2 hrs. The note with it: dose 1 µg/ml. The class given is functional.
The subject of data set [21] is Staphylococcus aureus. Briefly: Antibacterial activity against methicillin resistant Staphylococcus aureus ATCC33591 assessed as post antibiotic effect at 2 ug/ml measured after 2 hrs. The class given is functional. The note with it: dose 2 µg/ml.
The test system of data set [22] is Staphylococcus aureus. Briefly: Antibacterial activity against methicillin resistant Staphylococcus aureus ATCC33591 infected in mouse model of abdominal infection assessed as reduction in mean bacterial load in blood at 2 mg/kg, ip treated for 24 hrs starting from 2 hrs post infection. It counts as functional, organism-based.
Data set [23] concerns Pseudomonas syringae pv. actinidiae. The description is as §1. The class given is functional.

Values after ≈ are worked out from the molar mass of the structure shown. Active and inactive are the calls of the source. The rule behind the calls is not given here.

Broadly, the MIC is the lowest concentration that inhibits growth of the organism. The MBC is the lowest tested concentration that kills the bacteria rather than only halting them.

Consider `CO[C@H]1/C=C/O[C@@]2(C)Oc3c(C)c(O)c4c(O)c(c(/C=N/N5CCN(C)CC5)c(O)c4c3C2=O)NC(=O)/C(C)=C\C=C\[C@H](C)[C@H](O)[C@@H](C)[C@@H](O)[C@@H](C)[C@H](OC(C)=O)[C@@H]1C` [RIFAMPIN], for which the MIC in the data set on Staphylococcus aureus [1] and in the data set on Staphylococcus aureus [6] was 0.25 mg/L (≈ 0.304 µM) throughout. Besides, the values for the Ratio with Staphylococcus aureus [2] and with Staphylococcus aureus [4] were 256 and 1024, respectively. Besides, the values for the MBC with Staphylococcus aureus [3] and in the data set on Staphylococcus aureus [5] were 1 mg/L (≈ 1.22 µM) and 2 mg/L (≈ 2.43 µM), respectively.
Take `O=C(Nc1ccc(C2NCCc3c2[nH]c2ccccc32)cc1)c1ccc(C(F)(F)F)cc1` (centres undefined): the Activity in the data set on Staphylococcus aureus [7] is reported as 9.8%; in the data set on Staphylococcus aureus [9], 26%; with Staphylococcus aureus [10], 94.3%; with Staphylococcus aureus [18], 87.7%. The PAE with Staphylococcus aureus [8] worked out at 1.78 h; in the data set with Staphylococcus aureus [11] it was 2.63 h. The MIC in the data set with Staphylococcus aureus [1] amounted to 4 mg/L (≈ 9.19 µM); in the data set with Escherichia coli, 4 mg/L (≈ 9.19 µM); in the data set with Enterococcus faecium it was 64 mg/L (≈ 147 µM); with Ralstonia solanacearum, 4 mg/L (≈ 9.19 µM); in data set [17], 16 mg/L (≈ 36.7 µM); in the data set with Staphylococcus aureus [6] it was 4 mg/L (≈ 9.19 µM). For the same compound, the outcome in the data set on Staphylococcus aureus [12] and with Staphylococcus aureus [16] was Active. The viability at 24 h in [13] and in data set [15] was over 95% throughout. In addition, the MBC with Staphylococcus aureus [3] and in the data set on Staphylococcus aureus [5] was 4 mg/L (≈ 9.19 µM) throughout. Also, the values for the Ratio with Staphylococcus aureus [14] and in the data set on Staphylococcus aureus [19] were under 4 and 1, respectively.
Consider `O=C(O)c1cn(C2CC2)c2cc(N3CCNCC3)c(F)cc2c1=O` [CIPROFLOXACIN], for which the PAE with Staphylococcus aureus [20] was 1.18 h; in the data set with Staphylococcus aureus [21], 1.79 h. In addition, the MIC with Staphylococcus aureus [1] was 0.5 mg/L (≈ 1.51 µM); with Enterococcus faecium it was over 128 mg/L; in the data set on Ralstonia solanacearum, 0.25 mg/L (≈ 0.754 µM); in data set [17], 0.5 mg/L (≈ 1.51 µM); in the data set on Staphylococcus aureus [6], 0.5 mg/L (≈ 1.51 µM). Besides, the MBC in the data set with Staphylococcus aureus [3] was determined as 2 mg/L (≈ 6.04 µM). In the data set on Staphylococcus aureus [22], the result was Active.
As for `O=C(Nc1ccc(C2NCCc3c2[nH]c2ccccc32)cc1)c1ccc(F)cc1` (centres undefined), the PAE with Staphylococcus aureus [8] worked out at 0.95 h; in the data set on Staphylococcus aureus [11] it was 1.28 h. Moreover, the MIC is 4 mg/L (≈ 10.4 µM) with Staphylococcus aureus [1]; 16 mg/L (≈ 41.5 µM) in the data set on Escherichia coli; over 128 mg/L with Enterococcus faecium; 4 mg/L (≈ 10.4 µM) with Ralstonia solanacearum; 64 mg/L (≈ 166 µM) in data set [17]; 4 mg/L (≈ 10.4 µM) in the data set on Staphylococcus aureus [6]. The result with Staphylococcus aureus [12] and in the data set on Staphylococcus aureus [16] was Active. For the same compound, the viability at 24 h in [13] and in [15] was over 95% in each case. For the same compound, the MBC in the data set with Staphylococcus aureus [3] and with Staphylococcus aureus [5] was 8 mg/L (≈ 20.8 µM) in each case. Also, the Ratio is recorded as under 4 in the data set on Staphylococcus aureus [14] and 1 in the data set on Staphylococcus aureus [19].
For GENTAMICIN, the MIC in the data set on Staphylococcus aureus [1] was over 128 mg/L; in the data set with Escherichia coli it was 4 mg/L; in the data set with Enterococcus faecium, over 128 mg/L; with Ralstonia solanacearum, 16 mg/L; in data set [23], 8 mg/L; with Staphylococcus aureus [6] it was 4 mg/L. Besides, the MBC in the data set with Staphylococcus aureus [3] was over 128 mg/L; with Staphylococcus aureus [5], 8 mg/L.
